In article PMC11357638 (Molecules, 2024):
Substitutions are numbered along the chain they refer to.

Key:
[1] = target: T1, human TRPA1 (hTRPA1) channels (Homo sapiens, UniProt O75762); assay: Whole-cell patch-clamp selectivity, hTRPA1 in HEK293T cells; assay type: cell-based; details: CA at 1000 μM, current induced by AITC at 300 μM, mean ± SD, n = 5
T1 construct: expressed in transfected cells; host or cells: HEK293T

[2] = target: T2, human TRPM8 (hTRPM8) channels (Homo sapiens, UniProt Q7Z2W7); assay: Whole-cell patch-clamp selectivity, hTRPM8 in HEK293T cells; assay type: cell-based; details: HEK-293T; 1000 μM CA, current caused by 500 μM menthol, mean ± SD, n = 5
T2 construct: expressed in transfected cells; host or cells: HEK293T

[3] = target: T3, hTRPV3 I637A mutant (Homo sapiens, UniProt Q8NET8, I637A); assay: Whole-cell patch-clamp of hTRPV3 I637A mutant in HEK293T cells; assay type: cell-based
T3 construct: expressed in transfected cells; host or cells: HEK293T
T3 sequence (Q8NET8 1-790 I637A): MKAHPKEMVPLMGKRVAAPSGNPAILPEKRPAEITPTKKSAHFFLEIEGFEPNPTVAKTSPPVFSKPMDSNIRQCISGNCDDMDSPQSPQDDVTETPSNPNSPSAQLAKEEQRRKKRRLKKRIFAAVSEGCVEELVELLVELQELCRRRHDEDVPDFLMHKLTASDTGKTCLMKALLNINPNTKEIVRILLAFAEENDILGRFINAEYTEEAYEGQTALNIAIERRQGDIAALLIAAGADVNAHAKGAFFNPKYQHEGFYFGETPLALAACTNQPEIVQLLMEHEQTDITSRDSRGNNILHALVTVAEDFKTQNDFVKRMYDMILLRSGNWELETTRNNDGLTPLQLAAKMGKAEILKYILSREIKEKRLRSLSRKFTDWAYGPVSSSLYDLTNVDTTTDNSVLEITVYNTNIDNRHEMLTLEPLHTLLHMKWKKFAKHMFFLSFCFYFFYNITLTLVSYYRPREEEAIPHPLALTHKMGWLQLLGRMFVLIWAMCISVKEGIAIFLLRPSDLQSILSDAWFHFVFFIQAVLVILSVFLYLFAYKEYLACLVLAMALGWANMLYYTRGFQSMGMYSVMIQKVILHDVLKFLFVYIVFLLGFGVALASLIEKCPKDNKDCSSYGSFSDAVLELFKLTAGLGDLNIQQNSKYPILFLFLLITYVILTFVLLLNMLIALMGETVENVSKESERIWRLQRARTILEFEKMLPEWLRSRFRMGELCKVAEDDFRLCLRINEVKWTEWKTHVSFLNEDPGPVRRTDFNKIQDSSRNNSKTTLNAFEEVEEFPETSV

[4] = target: T4, hTRPV3 L670A mutant (Homo sapiens, UniProt Q8NET8, L670A); assay: Whole-cell patch-clamp of hTRPV3 L670A mutant in HEK293T cells; assay type: cell-based; details: 50 μM 2-APB
T4 construct: expressed in transfected cells; host or cells: HEK293T
T4 sequence (Q8NET8 1-790 L670A): T3 sequence (Q8NET8 1-790 I637A) with A637I, L670A

[5] = system: TRPV3-mediated skin inflammation induced by carvacrol; assay: Mouse model of dorsal skin dermatitis induced by skin sensitizer carvacrol; assay type: in vivo, C57BL/6J mice; details: mice, subcutaneous CA 0.1 and 1 mM (100 μL) once a day for 5 days, topical 2% carvacrol, versus carvacrol model group
[6] = system: HEK293T cells; assay: Cell viability of HEK293T cells (CCK-8 assay); assay type: cell-based, human; details: CA 1 mM, CCK-8, 6 hours treatment
[7] = target: T5, hTRPV3 L669A mutant (Homo sapiens, UniProt Q8NET8, L669A); assay: cell-based
T5 sequence (Q8NET8 1-790 L669A): T3 sequence (Q8NET8 1-790 I637A) with A637I, L669A

T2 sequence (Q7Z2W7 whole entry): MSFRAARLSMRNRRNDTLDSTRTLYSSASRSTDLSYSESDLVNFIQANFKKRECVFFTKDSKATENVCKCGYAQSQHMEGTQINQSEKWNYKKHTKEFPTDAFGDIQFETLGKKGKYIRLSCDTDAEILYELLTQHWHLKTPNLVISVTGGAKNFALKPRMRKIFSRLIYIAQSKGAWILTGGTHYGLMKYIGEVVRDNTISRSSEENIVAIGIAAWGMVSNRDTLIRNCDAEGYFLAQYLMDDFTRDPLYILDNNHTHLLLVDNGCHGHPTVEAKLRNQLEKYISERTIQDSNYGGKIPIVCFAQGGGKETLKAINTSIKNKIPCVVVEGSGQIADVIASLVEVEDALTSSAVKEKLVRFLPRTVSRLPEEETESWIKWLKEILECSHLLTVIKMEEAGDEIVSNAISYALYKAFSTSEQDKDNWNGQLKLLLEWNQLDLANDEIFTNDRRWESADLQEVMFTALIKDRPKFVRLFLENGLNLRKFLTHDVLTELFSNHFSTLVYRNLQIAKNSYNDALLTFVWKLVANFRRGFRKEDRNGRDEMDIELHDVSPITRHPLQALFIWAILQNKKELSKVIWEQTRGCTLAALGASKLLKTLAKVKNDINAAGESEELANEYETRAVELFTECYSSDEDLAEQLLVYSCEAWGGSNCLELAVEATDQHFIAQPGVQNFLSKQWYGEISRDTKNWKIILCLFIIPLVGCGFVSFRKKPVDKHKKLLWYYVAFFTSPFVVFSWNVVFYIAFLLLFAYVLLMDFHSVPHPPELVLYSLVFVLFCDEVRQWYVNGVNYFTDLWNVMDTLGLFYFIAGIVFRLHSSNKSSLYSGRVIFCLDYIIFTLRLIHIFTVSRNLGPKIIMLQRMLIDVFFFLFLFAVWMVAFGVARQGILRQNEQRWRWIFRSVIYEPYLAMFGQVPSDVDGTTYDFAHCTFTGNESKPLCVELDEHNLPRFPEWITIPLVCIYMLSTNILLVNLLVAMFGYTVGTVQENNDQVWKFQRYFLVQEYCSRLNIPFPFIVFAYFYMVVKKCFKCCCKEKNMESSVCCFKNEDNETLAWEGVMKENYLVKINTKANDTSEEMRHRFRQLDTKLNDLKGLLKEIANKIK
T1 sequence (O75762 whole entry): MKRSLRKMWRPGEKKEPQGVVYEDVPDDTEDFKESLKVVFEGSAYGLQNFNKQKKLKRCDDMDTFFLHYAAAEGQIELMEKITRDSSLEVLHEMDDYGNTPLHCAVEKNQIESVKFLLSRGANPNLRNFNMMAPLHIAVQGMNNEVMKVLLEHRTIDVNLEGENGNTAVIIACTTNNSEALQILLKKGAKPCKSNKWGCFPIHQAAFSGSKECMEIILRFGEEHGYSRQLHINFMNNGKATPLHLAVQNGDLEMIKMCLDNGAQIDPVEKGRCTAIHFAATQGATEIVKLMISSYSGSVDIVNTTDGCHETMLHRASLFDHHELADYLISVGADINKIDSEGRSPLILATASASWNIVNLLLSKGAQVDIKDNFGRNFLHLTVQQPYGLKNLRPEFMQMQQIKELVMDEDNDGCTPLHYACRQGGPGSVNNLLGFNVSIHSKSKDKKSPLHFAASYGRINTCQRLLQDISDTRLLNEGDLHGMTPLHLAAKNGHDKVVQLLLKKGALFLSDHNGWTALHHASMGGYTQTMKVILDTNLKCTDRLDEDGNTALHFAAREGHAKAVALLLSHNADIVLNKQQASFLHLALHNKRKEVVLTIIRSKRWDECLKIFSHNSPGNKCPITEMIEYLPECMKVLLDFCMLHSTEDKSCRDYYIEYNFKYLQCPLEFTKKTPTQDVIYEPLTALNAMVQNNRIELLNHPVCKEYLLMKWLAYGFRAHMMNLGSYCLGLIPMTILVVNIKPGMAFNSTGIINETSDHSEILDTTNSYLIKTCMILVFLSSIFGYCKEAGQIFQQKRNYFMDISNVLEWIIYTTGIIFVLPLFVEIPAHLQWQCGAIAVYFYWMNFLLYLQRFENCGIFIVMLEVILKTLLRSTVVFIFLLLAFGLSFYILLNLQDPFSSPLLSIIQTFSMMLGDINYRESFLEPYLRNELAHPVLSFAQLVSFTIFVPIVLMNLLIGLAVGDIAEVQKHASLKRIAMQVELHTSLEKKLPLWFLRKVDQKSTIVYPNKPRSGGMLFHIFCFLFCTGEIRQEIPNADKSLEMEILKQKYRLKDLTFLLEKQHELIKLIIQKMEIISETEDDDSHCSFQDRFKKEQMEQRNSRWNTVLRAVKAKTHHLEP

O=C(O)/C=C/c1ccc(O)c(O)c1 [CA, caffeic acid]
inhibition of human TRPA1 current [1]: about 22.9 ± 12.0% | inhibition at 1000 µM [2]: ~20.1% | IC50 ([3]; I637A hTRPV3, 50 μM 2-APB, +80 mV, Hill fit, read-out: IC50, inhibition of I637A mutant outward currents): 306 ± 61.1 µM | channel current inhibition by 500 μM CA compared to WT ([3]; I637A mutant, 50 μM 2-APB, 500 μM CA): significantly diminished | channel current inhibition by 500 μM CA compared to WT [4]: no significant difference | epidermal thickness ([5]; H&E sections): reduced epidermal thickness | dermatitis scores [5]: significantly reduced the dermatitis scores | cytotoxicity (cell viability) [6]: did not cause any noticeable cytotoxicity | IC50 [7]: 180 ± 59.9 µM
